Test results as given in patent US8680137B2, “Agents and methods for treating ischemic and other diseases” (Nono Inc., priority 2009, dated 2014).
Entries after “also recorded” stand apart in the source; their conditions may differ.

Columns and labels:
H9c2 cells = assay: OGD-induced cell death in H9c2 cardiomyocytes, PI uptake; type: cell-based, rat; conditions: for resilience to OGD: 0.05-5.0 μM; for protection against OGD-induced death, pre-treatment: pre-treatment before OGD
Method: The rat cardiomyoblast cell line H9c2 was obtained from the American Type Culture Collection (CRL-1446) and cultured in Dulbecco's Modified Eagle Medium supplemented with 10% (v/v) heat-inactivated fetal bovine serum and 1% antibiotic-antimycotic. Cells were grown in an atmosphere of […]/5% CO2 in a humidified incubator.
H9c2 cells were made anoxic by replacing the medium with de-oxygenated Ischemic buffer (in mM: 1.13 CaCl2, 5 KCl, 0.3 KH2PO4, 0.5 MgCl2, 0.4 MgSO4, 128 NaCl, 10 HEPES) and by transferring them to an anaerobic chamber (5% CO2, 10% H2, 85% N2) for 6 hrs or 16 hrs at 37° C. OGD was terminated by washing the cells with oxygenated glucose-containing Control buffer (in mM: 1.13 CaCl2, 5 KCl, 0.3 KH2PO4, 0.5 MgCl2, 0.4 MgSO4, 128 NaCl, 10 HEPES 10 Glucose). Cultures were maintained for another 2 hrs at 37° C. in a humidified 5% CO2 atmosphere. Normoxic cells were maintained in Control buffer for the duration of the experiment.
Cell death was determined by fluorescence measurements of PI (5 μg/ml) using a multiwell plate fluorescence scanner. The fraction of dead cells in each culture was calculated as: fraction dead=(Ft−F0)/Fmax where Ft=PI fluorescence at 2 hrs post-OGD, F0=initial PI fluorescence immediately after the OGD treatment, and Fmax=PI fluorescence of the same cultures following 20 mins incubation in 1% TritonX-100.
H9c2 cells were cultured and subjected to OGD as described supra. FIG. 71 panels A and B show the results of exposure to M21 or M5 for 24 hours following 6 hours of OGD. FIG. 71 panels C and D show the results of H9c2cells were treated with either 1 mM Mg^2+, 5 μM M6, M11 (acute treatment) during the anoxic and recovery periods, or 1 μM nifedipine. Results are presented as mean±SEM (n=4).

[1] = test system: Weri retinoblastoma cells; assay: Cancer cell proliferation, Weri; type: cell-based; conditions: >20% inhibition at 48-96 hours, MTT, SRB, luminescence or BrDU
Method: (§1) To determine the breadth of efficacy in cancers, we examined the efficacy of a range of TRPM7 inhibitors for their ability to inhibit cell proliferation in cancer cell lines. Representative figures are included as examples.
(§2) Cells (Table 1) were grown to 70% confluency, trypsinized, counted, and seeded in 96-well flat-bottom plates at a final concentration of 2.5×10^3-5.0×10^3 cells/well in growth media containing 5% FBS (Day 0). Other well sizes and cell densities were used successfully as well. Cells were allowed to incubate in growth media for 24 hours to allow for maximum adhesion. Treatment with the test agent began on Day 1 and continued for 72 hours either with or without retreatment. At the 72 hour time point, viable cell numbers are quantified by the CellTiter-Glo® cell viability assay as described above, or using standard MTT, SRB or BrDU assays. Experiments were repeated at least twice with the same concentrations to determine growth inhibitory activity.
(§3) Data Collection—For the cell proliferation studies, data from each experiment was collected and expressed as % Cell Growth using the following calculation: % Cell Growth=(ftest/fvehicle)×100 Where ftest is the luminescent signal of the tested sample, and fvehicle is the luminescence of the vehicle in which the drug is dissolved (or appropriate measure for the other viability/proliferation measures). Dose response graphs and IC50 values were generated using standard software using the following variable slope equation: […]

[2] = test system: primary cultured mouse cortical cells; assay: OGD-induced anoxic death in murine primary neuronal cell cultures, PI fluorescence; type: cell-based; conditions: 1 to 3 hours OGD, with or without MCN, applied prior to or following OGD
Method: TRPM7 inhibitors were tested for their ability to reduce anoxic death in murine primary neuronal cell cultures subjected to 1 to 3 hours of OGD. This assay was generally performed as described by Aarts et al (2003). In brief, mixed cortical cultures enriched with neurons (85%) were prepared and used for experiments after 12-14 days in vitro. The cultures were transferred to an anaerobic chamber containing 5% CO2, 10% H and 85% N2. Cultures were washed 3× with 500 μl deoxygenated glucose free bicarbonate solution and maintained anoxic for the appropriate duration at 37° C. OGD was terminated by washing the cultures with oxygenated glucose-containing bicarbonate solution, and the cultures were further maintained 1-24 hours in a humidified 5% CO2 atmosphere. Cell death wash generally measured by fluorescence measurement of PI (50 ug/ml) in a multiwall plate reader (CytoFluor II, Perseptive Biosystems).

TRPM7 = TRPM7 (Mus musculus, UniProt Q923J1); assay: Whole-cell patch clamp recording of TRPM7 currents in HEK293 cells expressing TRPM7; conditions: for TRPM7 currents, applied intracellularly: in intracellular recording fluid, final concentration 2 mM, 10-20 minutes; for TRPM7 currents, extracellular application: tested at 0.3, 1, 3, 10 and 30 μM
Method: Whole-cell patch clamp recordings were used essentially as described to test the TRPM7 inhibitors in HEK293 cells, H9c2 cardiomyocytes and cultured neurons. Each test compound was tested at 0.3, 1, 3, 10 and 30 μM, or as high as solubility permits.
To assess whether the M-compounds were inhibiting TRPM7 currents from an intracellular or extracellular location, M21 and M6 were dissolved in DMSO at 10 mM as stock, then diluted into intracellular recording fluid (ICF) to final concentration of 2 mM Immediately start recording of the TRPM7 like currents to RAMP change of membrane potentials after making the whole cell. Recording lasts for 10-20 minutes to compare the currents between control and test group.

[3] = test system: MCF-7 breast cancer cells; assay: Cancer cell proliferation, MCF-7; type: cell-based; conditions: for proliferation: MCF-7, FIG. 80; for Demonstrated Reduction of Proliferation at or below 10 μM Inhibitor concentration: MCF-7, >20% inhibition at 48-96 hours, MTT, SRB, luminescence or BrDU
Method: as §1, §2, §3

retinal explants = assay: OGD in cultured ex vivo retinal explants; type: cell-based, rat; conditions: 1 hr OGD
Method: The ability of TRPM7 inhibitors to protect other types of cell cultures following exposure to anoxia, including non-neuronal cell cultures, has also been tested. In general, cultures of growing cells are exposed to a 1-6 hour period of anoxia, followed by addition of a TRPM7 at a range of concentrations upon removal from anoxic conditions. […] This implies that TRPM7 inhibitors may be useful both as a treatment for anoxic damage to patients presenting symptoms of a disorder associated with anoxic damage, or as a preventative measure. Such preventative measures can be chronic, such as treatment to protect against damage from heart attacks or strokes, or acute, to be given prior to or during surgical procedures, which may include but not be limited to procedures that involve endovascular invasion and have the possibility of dislodging material that may block blood flow through arteries. Other types of preventative measures can include the reduction of anoxic damage associated with cardiovascular issues (heart attack, myocardial infarction, acute ischemic attacks, atrial fibrillation, etc), brain disorders (stroke, neurotrauma, etc), diabetic disorders (blindness, deafness, neuropathy), retinal/eye disorders (glaucoma, macular degeneration, blindness), aural disorders (deafness, progressive deafness, hearing loss), muscle disorders (weakness, myodegenerative disease, disorders associated with mitochondrial depletion), and organ disorders (kidney, lung, liver disorders associated with ischemia or anoxic damage).
Acute and chronic retinal ischemia are major causes of blindness. Retinal damage from glaucoma, also termed “slow excitotoxicity” afflicts millions of people each year and is the second leading cause of blindness worldwide (after cataracts). Diabetic retinopathy is also very common, afflicting about 40% of diabetics and, while less commonly producing complete blindness, is a leading cause of visual impairment. The retina is an extension of the CNS, and was the first organ in which excitotoxicity was described. […]

[4] = test system: mixed retinal cell cultures; assay: OGD in dissociated mixed rat retinal cultures; type: cell-based
Method: The ability of TRPM7 inhibitors to protect other types of cell cultures following exposure to anoxia, including non-neuronal cell cultures, has also been tested. In general, cultures of growing cells are exposed to a 1-6 hour period of anoxia, followed by addition of a TRPM7 at a range of concentrations upon removal from anoxic conditions. […] This implies that TRPM7 inhibitors may be useful both as a treatment for anoxic damage to patients presenting symptoms of a disorder associated with anoxic damage, or as a preventative measure. Such preventative measures can be chronic, such as treatment to protect against damage from heart attacks or strokes, or acute, to be given prior to or during surgical procedures, which may include but not be limited to procedures that involve endovascular invasion and have the possibility of dislodging material that may block blood flow through arteries. […]

TRPM7, sequence (Q923J1 whole entry): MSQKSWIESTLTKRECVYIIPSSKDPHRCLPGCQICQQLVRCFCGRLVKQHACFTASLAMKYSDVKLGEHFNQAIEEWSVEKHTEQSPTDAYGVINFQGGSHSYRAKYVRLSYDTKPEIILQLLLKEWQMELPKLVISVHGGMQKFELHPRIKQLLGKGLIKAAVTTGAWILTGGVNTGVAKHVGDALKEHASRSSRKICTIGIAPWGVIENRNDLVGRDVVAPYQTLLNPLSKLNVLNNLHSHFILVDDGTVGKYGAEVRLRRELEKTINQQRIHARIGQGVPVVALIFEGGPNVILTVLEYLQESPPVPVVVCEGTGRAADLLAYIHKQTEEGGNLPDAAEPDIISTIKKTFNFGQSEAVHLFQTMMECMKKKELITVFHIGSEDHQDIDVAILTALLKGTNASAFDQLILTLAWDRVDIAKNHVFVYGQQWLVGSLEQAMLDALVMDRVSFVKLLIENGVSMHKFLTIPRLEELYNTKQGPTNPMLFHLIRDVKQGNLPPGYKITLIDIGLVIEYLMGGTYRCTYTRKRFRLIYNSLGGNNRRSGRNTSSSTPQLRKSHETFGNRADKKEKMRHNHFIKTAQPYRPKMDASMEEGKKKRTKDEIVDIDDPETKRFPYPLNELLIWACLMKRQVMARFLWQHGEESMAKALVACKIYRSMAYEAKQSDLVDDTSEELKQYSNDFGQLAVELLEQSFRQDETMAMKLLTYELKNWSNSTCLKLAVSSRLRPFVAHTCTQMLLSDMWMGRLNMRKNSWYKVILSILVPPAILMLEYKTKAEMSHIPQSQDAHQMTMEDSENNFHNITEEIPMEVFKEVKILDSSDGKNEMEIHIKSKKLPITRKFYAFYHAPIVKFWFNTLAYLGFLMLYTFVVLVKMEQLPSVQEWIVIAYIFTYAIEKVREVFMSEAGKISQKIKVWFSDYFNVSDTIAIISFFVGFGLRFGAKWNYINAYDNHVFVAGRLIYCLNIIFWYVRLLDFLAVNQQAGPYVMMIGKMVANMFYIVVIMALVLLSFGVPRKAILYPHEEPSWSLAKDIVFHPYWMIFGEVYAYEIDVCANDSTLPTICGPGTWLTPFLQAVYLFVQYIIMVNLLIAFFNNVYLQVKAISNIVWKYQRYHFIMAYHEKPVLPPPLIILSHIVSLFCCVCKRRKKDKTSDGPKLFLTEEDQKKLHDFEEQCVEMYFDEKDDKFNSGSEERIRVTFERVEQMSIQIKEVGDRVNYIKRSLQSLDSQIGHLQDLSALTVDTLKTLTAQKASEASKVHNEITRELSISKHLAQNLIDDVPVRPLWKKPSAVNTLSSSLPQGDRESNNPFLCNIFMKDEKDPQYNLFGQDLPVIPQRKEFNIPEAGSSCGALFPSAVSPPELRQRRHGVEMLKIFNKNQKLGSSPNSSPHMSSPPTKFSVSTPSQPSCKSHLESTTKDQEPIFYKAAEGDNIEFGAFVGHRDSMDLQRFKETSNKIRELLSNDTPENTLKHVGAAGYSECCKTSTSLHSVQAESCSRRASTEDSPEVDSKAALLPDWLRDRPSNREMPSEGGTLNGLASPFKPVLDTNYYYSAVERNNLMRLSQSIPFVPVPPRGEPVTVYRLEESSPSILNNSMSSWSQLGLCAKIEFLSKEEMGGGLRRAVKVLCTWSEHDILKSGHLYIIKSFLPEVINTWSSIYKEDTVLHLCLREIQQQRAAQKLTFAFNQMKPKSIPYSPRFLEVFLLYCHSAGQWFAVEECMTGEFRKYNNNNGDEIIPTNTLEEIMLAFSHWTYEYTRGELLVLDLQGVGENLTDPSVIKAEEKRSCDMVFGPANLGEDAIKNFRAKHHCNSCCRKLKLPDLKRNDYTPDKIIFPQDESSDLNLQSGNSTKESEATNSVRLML

SMILES	resilience to OGD (H9c2 cells)	protection against OGD-induced death, pre-treatment (H9c2 cells)	Demonstrated Reduction of Proliferation at or below 10 μM Inhibitor concentration [1]	protection from anoxic death after OGD [2]	TRPM7 currents, applied intracellularly (TRPM7)	TRPM7 currents, extracellular application (TRPM7)	TRPM7 currents, extracellular application (TRPM7; listed as 6)	proliferation [3]	Demonstrated Reduction of Proliferation at or below 10 μM Inhibitor concentration [3]	survival / resilience following exposure to OGD (retinal explants)	TRPM7 currents, extracellular application (TRPM7; listed as 11)	survival following exposure to OGD [4]	TRPM7 currents, extracellular application (TRPM7; listed as 21)
COc1cc2c(cc1OC)C(c1sc3ccccc3c1Cl)=NCC2 [Compound M6]	enhanced their resilience to OGD	comparable result to treatment after the onset of anoxia	Weri retinoblastoma	protection of cultures from anoxic death is observed	do not affect TRPM7 currents	reduces current through the TRPM7 channel	inhibited ion currents through TRPM7	reduce proliferation	MCF-7	enhanced their resilience to OGD			
O=C(Nc1ccc(F)cc1)C(Sc1ccc(Cl)cc1)c1ccccc1 (stereo not shown) [Compound M11]	enhanced their resilience to OGD	less robust rescue of the OGD-induced death	Weri retinoblastoma	protection has been demonstrated		highest level of inhibition		reduce proliferation	MCF-7	promote survival	inhibited ion currents through TRPM7	promote survival	
Cc1c(Cc2ccc(Cl)c(Cl)c2)c(=O)oc2cc(O)ccc12 [Compound M21]	enhanced their resilience to OGD		Weri retinoblastoma	protection of cultures from anoxic death is observed	do not affect TRPM7 currents	highest level of inhibition				promote survival; also recorded: enhanced their resilience to OGD		promote survival	inhibited ion currents through TRPM7
